biological target: human RIP1 kinase domain (2-375) (Homo sapiens (Human), UniProt Q13546); test: biochemical; type: biochemical; conditions: Table 1; apparent Ki (Morrison tight-binding fit); 50 nM RIP1 kinase domain, 50 uM ATP, 2 hours incubation; read-out: RIP1 Ki
In short: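 50 nM purified kinase domain from baculovirus-infected insect cells, incubated 2 h with compound in 50 mM Hepes pH 7.5, 30 mM MgCl2, 1 mM DTT, 50 uM ATP, 0.002% Brij-35, 0.5% DMSO. ADP formation read by Transcreener FP at 633 nm excitation. Ki^app fitted with the Morrison tight-binding equation.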

Sequence of human RIP1 kinase domain (2-375) (Q13546 2-375): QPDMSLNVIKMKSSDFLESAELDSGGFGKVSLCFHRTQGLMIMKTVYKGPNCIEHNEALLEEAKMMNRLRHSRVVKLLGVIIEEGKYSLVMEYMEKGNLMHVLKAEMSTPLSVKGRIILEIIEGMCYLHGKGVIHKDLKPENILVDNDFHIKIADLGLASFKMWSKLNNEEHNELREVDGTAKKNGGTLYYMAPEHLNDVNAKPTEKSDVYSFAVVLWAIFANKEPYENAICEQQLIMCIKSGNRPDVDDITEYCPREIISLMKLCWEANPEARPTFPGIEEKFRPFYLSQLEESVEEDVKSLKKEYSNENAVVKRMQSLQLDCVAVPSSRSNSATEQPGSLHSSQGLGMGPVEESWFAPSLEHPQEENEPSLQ

| Compound | Ki [nM] |
| --- | --- |
| Cc1cc2n(n1)CCC(NC(=O)c1ncn3ccc(C(F)(F)F)cc13)C(=O)N2C (stereo not drawn) [Example 76, N-(2,4-dimethyl-5-oxo-5,6,7,8-tetrahydro-4H-pyrazolo[1,5-a][1,3]diazepin-6-yl)-7-(trifluoromethyl)imidazo[1,5-a]pyridine-1-carboxamide] | 536 |

same assay, conditions: human RIP1 kinase domain (2-375), 50 uM ATP, 2 hours incubation, Transcreener ADP assay; read-out: RIP1 Ki

| Compound | Ki [nM] |
| --- | --- |
| CN1C(=O)[C@@H](NC(=O)c2nc3n(n2)C(c2ccccc2)COC3)COc2ccccc21 (stereo partly drawn) [Example 123, N—((S)-5-methyl-4-oxo-2,3,4,5-tetrahydrobenzo[b][1,4]oxazepin-3-yl)-5-phenyl-5,6-dihydro-8H-[1,2,4]triazolo[5,1-c][1,4]oxazine-2-carboxamide] | 268 |
| (S)—N-(5-methyl-4-oxo-2,3,4,5-tetrahydrobenzo[b][1,4]oxazepin-3-yl)-6-(trifluoromethyl)-[1,2,4]triazolo[4,3-a]pyridine-3-carboxamide [Example 113] | 1700 |
| CN1C(=O)C(NC(=O)c2ncn(Cc3ccccc3)n2)CCCn2cncc21 (stereo not drawn) [Example 103, 1-benzyl-N-(1-methyl-2-oxo-1,2,3,4,5,6-hexahydroimidazo[1,5-a][1,3]diazocin-3-yl)-1H-1,2,4-triazole-3-carboxamide] | 124 |

same assay, conditions: tight-binding apparent inhibition constant; human RIP1 kinase domain (2-375) 50 nM, 50 uM ATP, 2 hours; read-out: Ki

| Compound | Ki [nM] |
| --- | --- |
| Cc1cc(F)c2c(c1)OC[C@H](NC(=O)c1nc3n(n1)CCO[C@H]3c1ccccc1)C(=O)N2 [Example 642, (8S)-8-phenyl-N-[(3S)-6-fluoro-8-methyl-4-oxo-3,5-dihydro-2H-1,5-benzoxazepin-3-yl]-6,8-dihydro-5H-[1,2,4]triazolo[5,1-c][1,4]oxazine-2-carboxamide] | 12 |
| CN1C(=O)[C@@H](NC(=O)c2ncn(Cc3ccc(F)cc3)n2)CCn2nc(C(F)(F)F)cc21 [Example 525] | 46 |
| CN1C(=O)[C@@H](NC(=O)c2nc3n(n2)[C@@H](c2ccccc2F)CC3)CCn2nccc21 [Example 465, (R)-5-(2-fluorophenyl)-N—((S)-4-methyl-5-oxo-5,6,7,8-tetrahydro-4H-pyrazolo[1,5-a][1,3]diazepin-6-yl)-6,7-dihydro-5H-pyrrolo[1,2-b][1,2,4]triazole-2-carboxamide] | 9 |
| CN1C(=O)[C@@H](NC(=O)c2nnc(Cc3cccc(F)c3F)[nH]2)CCn2nc(C3CC3)cc21 [Example 514, 5-[(2,3-difluorophenyl)methyl]-N-(6 S)-2-cyclopropyl-4-methyl-5-oxo-7,8-dihydro-6H-pyrazolo[1,5-a][1,3]diazepin-6-yl-4H-1,2,4-triazole-3-carboxamide] | 17 |
| CC[C@H]1C[C@H](Cn2cnc(C(=O)N[C@H]3CCn4nccc4N(C)C3=O)n2)C1 [Example 503, N—((S)-4-methyl-5-oxo-5,6,7,8-tetrahydro-4H-pyrazolo[1,5-a][1,3]diazepin-6-yl)-1-(((1S,3 S)-3-ethylcyclobutyl)methyl)-1H-1,2,4-triazole-3-carboxamide] | 23 |
| CC[C@]1(C)OCc2cnc(C(=O)N[C@H]3CCn4nc(C)cc4N(C)C3=O)nc21 (racemic) [Example 690, rac-(7S)-7-ethyl-7-methyl-N-[rac-(6S)-2,4-dimethyl-5-oxo-7,8-dihydro-6H-pyrazolo [1,5-a][1,3]diapepin-6-yl]-5H-furo[3,4-d]pyrimidine-2-carboxamide] | 1180 |
| Cc1cn2c(n1)N(C)C(=O)[C@H](NC(=O)c1ncn(Cc3cc(F)ccc3F)n1)CC2 [Example 661, 1-[(2,5-difluorophenyl)methyl]-N-(7R)-2,9-dimethyl-8-oxo-6,7-dihydro-5H-imidazo[1,2-a][1,3]diazepin-7-yl-1,2,4-triazole-3-carboxamide] | 57 |
| CN1C(=O)[C@@H](NC(=O)c2nc3n(n2)CC[C@H]3c2ccccc2)COc2ccccc21 [Example 572, (7S)-7-phenyl-N-[(3S)-5-methyl-4-oxo-2,3-dihydro-1,5-benzoxazepin-3-yl]-6,7-dihydro-5H-pyrrolo[1,2-b][1,2,4]triazole-2-carboxamide] | 450 |

Source: patent publication US10988459B2 (priority 2015, dated 2021)
